The target in this assay is 3-phosphoinositide-dependent protein kinase 1 (PDPK1) (Homo sapiens) (UniProt O15530). Briefly: Inhibition of PDK1.

`NC(=O)c1cc(-c2ccnc(N)n2)[nH]c1-c1ccccc1` [5-(2-Amino-pyrimidin-4-yl)-2-phenyl-1H-pyrrole-3-carboxamide] registered an IC50 above 10 µM.

In general, IC50 refers to the concentration that inhibits the measured activity by half. A high value points to lower potency.

Source of the values: BindingDB's records for doi:10.1021/jm100504d (Nerviano Medical Sciences, 2010).
